Results from US20250236589A1, “THERAPEUTIC PHENETHYLAMINE COMPOSITIONS AND METHODS OF USE” (Cybin IRL Limited, priority 2022, published 2025).
Where two headings read alike, the source gives them in different places.

Tests used:
[1] = In vitro liver microsome stability (RLM); assay type: in vitro ADME; settings: rat, rat liver microsomes, 0.5 mg/mL microsomes, NADPH, read-out: RLM, t1/2
Procedure: (§1) In vitro stability was determined in Human (HLM), Rat (RLM), Mouse (MsLM), and dog (DLM) Liver Microsomes. All liver microsomes were purchased from a commercial supplier (e.g. XenoTech). The reaction mixture, minus NADPH, was prepared as described below. The test compound was added into the reaction mixture at a final concentration of 1 μM or co-dosed with their deuterated analog(s) at 1 μM each. The control compound, testosterone, was run simultaneously with the test compound in a separate reaction. The reaction mixture (without cofactor) was equilibrated in a shaking water bath at 37° C. for 5 minutes. The reaction was initiated by the addition of the cofactor, and the mixture was incubated in a shaking water bath at 37° C. Aliquots (150 μL) were withdrawn at 0, 5, 10, 20, 30, 60, and 120 minutes. Test compound and testosterone samples were immediately combined with 150 μL of ice-cold acetonitrile (ACN) containing 0.1% formic acid and internal standard to terminate the reaction. The samples were then mixed and centrifuged to precipitate proteins. All samples were assayed by LC-MS/MS using electrospray ionization. The peak area response ratio (PARR) of analyte to internal standard at each time point was compared to the PARR at time 0 to determine the percent remaining at each time point. Half-lives were calculated using GraphPad software, fitting to a single-phase exponential decay equation.

MAO-A = MAO-A (Homo sapiens (Human), UniProt P21397); assay: Recombinant human MAO-A activity (stability); assay type: in vitro ADME; settings: hrMAO 0.02 mg/mL, read-out: MAO-A, t1/2
Procedure: hrMAO-A and MAO control were purchased from XenoTech. The reaction mixture was prepared as described below. The test compound was added into the reaction mixture at a final concentration of 1 μM or co-dosed with their deuterated analog at 1 μM each. The positive control kynuramine (25 μM) was run simultaneously with the test compound in a separate reaction. The reaction mixture (without test compounds or kynuramine) was equilibrated in a shaking water bath at 37° C. for 5 minutes. The reaction was initiated by the addition of the test compound or kynuramine, and the mixture was incubated in a shaking water bath at 37° C. Aliquots (150 μL) of the test compound reaction mixture were withdrawn at 0, 5, 10, 20, 30, 60, and 120 minutes. Aliquots (150 μL) of the positive control reaction mixture were withdrawn at 0 and 30 minutes. Test compound(s) and kynuramine samples were immediately combined with 150 μL of ice-cold 100% acetonitrile containing 0.1% formic acid and internal standard (0.2 μM metoprolol) to terminate the reaction. The samples were then mixed and centrifuged to precipitate proteins. All samples were assayed by LC-MS/MS. The peak area response ratio (PARR) of analyte to internal standard at each time point was compared to the PARR at time 0 to determine the percent remaining at each time point. Half-lives were calculated using GraphPad software, fitting to a single-phase exponential decay equation.

[2] = Plasma and brain concentrations after dosing in mice (screening); assay type: in vivo, mouse; settings: for concentration at 160 min: sc, mice, 3 mg/kg s.c.
human alpha2C receptor = human alpha2C receptor (Homo sapiens (Human), UniProt P18825); assay: alpha2C receptor binding ([3H]rauwolscine)
Procedure: (§2) At 10 μM, I-1 inhibited 97% of radioligand bound to rat alpha2 receptors.

[3] = In vitro liver microsome stability (DLM); assay type: in vitro ADME; settings: dog, dog liver microsomes, 0.5 mg/mL microsomes, NADPH, read-out: DLM, t1/2
Procedure: as §1, with “The peak area response ratio (PARR) of analyte to internal standard at each time point was compared to the PARR at time 0 to determine the percent remaining at each time point.” left out

human alpha2B receptor = human alpha2B receptor (Homo sapiens (Human), UniProt P18089); assay: alpha2B receptor binding ([3H]rauwolscine)
Procedure: as §2

Brain protein binding = assay type: in vitro ADME; settings: dilute brain homogenate
Description: The CSF concentrations were only 20% of that found in plasma. Concomitantly CSF concentrations were 1.6% of brain concentrations. The CSF/brain ratio corroborates brain protein binding experiments in which the free fraction of compound I-1 in dilute brain homogenate was 1.4%.

5-HT1A receptors = 5-HT1A receptors (Homo sapiens (Human), UniProt P08908); assay: 5-HT1A radioligand binding ([3H]8-OH-DPAT)
Procedure: In another series of 5-HT1A,2A,2B radioligand competition binding assays, the conditions were as follows: For 5-HT1A assays, cell membrane homogenates (˜30 μg protein) derived from HEK-293 cells expressing human 5-HT1ARs were incubated with 0.5 nM [^3H]8-hydroxy-2-(di-n-propylamino)tetralin ([^3H]8-OH-DPAT) for 60 min at room temperature in the presence or absence of the test article. Non-specific binding was determined in the presence of 10 μM 8-OH-DPAT. Samples were then analyzed as described above, with only immaterial differences. […] Samples were then analyzed as described above.

[4] = PK profile in C57BL/6J mice (plasma, brain); assay type: in vivo, mouse; settings: for Kp / half-life / AUC(0-t) / Cmax / MRT last / Tmax / AUC(0-inf): male, C57BL/6J, mouse; for Kp: brain/plasma, read-out: Brain/Plasma ratio (AUCINF); for AUC(0-inf): read-out: AUCINF—obs
Procedure: PK Profile in Mice. To evaluate the full PK profile for I-1 in mice, plasma and brain samples were determined in male C57BL/6J mice following subcutaneous (s.c.) and oral (p.o.) administration at 3 mg/kg (see Table 7 and FIGS. 54A and 54B). In a typical experiment, blood was collected via cardiac puncture (N=3 animals per time point, 9 time points) up to 24 hours post dose. Plasma and brain concentrations were determined using LC-MS/MS and PK parameters were determined using a non-compartmental analysis (NCA) using Phoenix WinNonlin Pro (v8.3.1, Pharsight, Inc, USA) software.

human alpha2C receptor, sequence (P18825 whole entry): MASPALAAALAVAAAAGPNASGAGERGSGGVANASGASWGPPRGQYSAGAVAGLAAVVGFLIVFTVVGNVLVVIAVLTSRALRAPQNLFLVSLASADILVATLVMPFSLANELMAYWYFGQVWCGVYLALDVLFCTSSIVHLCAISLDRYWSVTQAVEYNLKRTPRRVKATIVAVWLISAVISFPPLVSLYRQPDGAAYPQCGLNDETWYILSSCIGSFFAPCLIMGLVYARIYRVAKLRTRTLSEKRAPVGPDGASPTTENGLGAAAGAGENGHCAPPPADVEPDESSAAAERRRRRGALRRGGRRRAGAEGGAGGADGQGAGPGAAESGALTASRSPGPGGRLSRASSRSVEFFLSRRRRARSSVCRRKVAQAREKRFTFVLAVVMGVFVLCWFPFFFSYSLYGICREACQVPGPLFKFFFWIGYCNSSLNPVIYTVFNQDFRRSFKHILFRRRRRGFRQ
MAO-A, sequence (P21397 whole entry, looked up): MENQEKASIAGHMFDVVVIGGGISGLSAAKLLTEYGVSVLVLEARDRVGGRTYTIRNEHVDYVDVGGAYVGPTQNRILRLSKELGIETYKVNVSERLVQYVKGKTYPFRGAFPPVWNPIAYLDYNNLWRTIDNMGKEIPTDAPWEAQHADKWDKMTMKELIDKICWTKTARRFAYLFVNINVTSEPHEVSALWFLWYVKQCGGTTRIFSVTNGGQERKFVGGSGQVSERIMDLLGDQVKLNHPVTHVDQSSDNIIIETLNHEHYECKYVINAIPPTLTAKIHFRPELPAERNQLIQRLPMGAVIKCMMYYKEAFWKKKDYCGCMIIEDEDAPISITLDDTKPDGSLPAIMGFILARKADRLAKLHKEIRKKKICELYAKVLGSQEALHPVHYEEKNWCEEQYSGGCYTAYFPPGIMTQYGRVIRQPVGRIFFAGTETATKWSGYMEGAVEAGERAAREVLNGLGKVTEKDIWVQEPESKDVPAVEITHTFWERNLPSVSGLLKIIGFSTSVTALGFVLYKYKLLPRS
human alpha2B receptor, sequence (P18089 whole entry): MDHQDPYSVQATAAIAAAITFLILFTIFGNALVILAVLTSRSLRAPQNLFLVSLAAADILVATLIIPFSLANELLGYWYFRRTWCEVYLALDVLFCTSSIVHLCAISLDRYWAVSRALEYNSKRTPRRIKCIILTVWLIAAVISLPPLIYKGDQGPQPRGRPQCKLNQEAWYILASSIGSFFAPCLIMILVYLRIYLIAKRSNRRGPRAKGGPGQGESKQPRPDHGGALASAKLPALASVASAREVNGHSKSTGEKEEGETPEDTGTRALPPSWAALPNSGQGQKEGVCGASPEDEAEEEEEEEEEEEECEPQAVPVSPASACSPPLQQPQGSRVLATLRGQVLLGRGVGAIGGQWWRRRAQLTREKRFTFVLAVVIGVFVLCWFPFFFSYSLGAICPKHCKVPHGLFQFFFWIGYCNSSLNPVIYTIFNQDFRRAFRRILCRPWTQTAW

Question: For `COc1cc(SC(F)(F)F)c(OC)cc1CCN` [Compound I-1, 2-(2,5-dimethoxy-4-((trifluoromethyl)thio)phenyl)ethan-1-amine], which half-life at 1 μM [1] is on record?
Answer: Its half-life at 1 μM is 55.2 min.

Question: And the half-life at 1 μM (MAO-A)?
Answer: The half-life at 1 μM was > 120 min.

Question: And the “brain/plasma ratio, 160 min” value ([2]; 160 min after 3 mg/kg)?
Answer: Its value is 32.4.

Question: And the concentration at 160 min ([2]; mouse, brain, read-out: Brain, 160 min)?
Answer: The concentration at 160 min was 9.6 µM.

Question: What about the Kp at 160 min ([2]; mouse, brain/plasma, subcutaneous, 3 mg/kg, 160 min after 3 mg/kg, read-out: brain/plasma ratio, 160 min) of the same compound?
Answer: The Kp at 160 min was 24 to 32.

Question: And the concentration at 160 min ([2]; mouse, plasma, read-out: Plasma, 160 min)?
Answer: The concentration at 160 min was 0.3 µM.

Question: What about the Ki (human alpha2C receptor) of the same compound?
Answer: Its Ki is 108 nM.

Question: What about the half-life at 1 μM [3] of the same compound?
Answer: The half-life at 1 μM was > 120 min.

Question: What about the Ki (human alpha2B receptor) of the same compound?
Answer: Its Ki is 1020 nM.

Question: And the fraction unbound (Brain protein binding)?
Answer: The fraction unbound was 0.014.

Question: And the inhibition at 0.1 µM (5-HT1A receptors; 100 nM)?
Answer: The inhibition at 0.1 µM was 55%.

Question: And the inhibition at 1 µM (5-HT1A receptors; 1 uM)?
Answer: The inhibition at 1 µM was 90%.

Question: And the AUCINF ([4]; brain, p.o. 3 mg/kg)?
Answer: The AUCINF was 16171 ng·h/g.

Question: And the T1/2 ([4]; brain, p.o. 3 mg/kg)?
Answer: The T1/2 was 2.73 h.

Question: What about the peak brain concentration ([4]; brain, p.o. 3 mg/kg) of the same compound?
Answer: The peak brain concentration was 2366 ng/g.

Question: And the AUCINF ([4]; brain, s.c. 3 mg/kg)?
Answer: The AUCINF was 22487 ng·h/g.

Question: And the T1/2 ([4]; brain, s.c. 3 mg/kg)?
Answer: The T1/2 was 3.15 h.

Question: What about the peak brain concentration ([4]; brain, s.c. 3 mg/kg) of the same compound?
Answer: The peak brain concentration was 3165 ng/g.

Question: What about the Kp ([4]; po, p.o. 3 mg/kg) of the same compound?
Answer: Its Kp is 25.8.

Question: And the Kp ([4]; sc, s.c. 3 mg/kg)?
Answer: The Kp was 30.7.

Question: And the half-life ([4]; plasma and brain, other: subcutaneous and oral (range over both routes), 3 mg/kg, across route of administration and tissue, read-out: elimination T1/2)?
Answer: The half-life was 164 to 235 min.

Question: And the AUC(0-t) ([4]; po, brain, p.o. 3 mg/kg)?
Answer: Its AUC(0-t) is 16100 ng·h/mL.

Question: What about the Cmax ([4]; po, brain, p.o. 3 mg/kg) of the same compound?
Answer: The Cmax was 2370 ng/mL.

Question: What about the MRT last ([4]; po, brain, p.o. 3 mg/kg) of the same compound?
Answer: Its MRT last is 5.35 h.

Question: And the Tmax ([4]; po, brain, p.o. 3 mg/kg)?
Answer: The Tmax was 1 h.

Question: And the AUC(0-inf) ([4]; po, brain, p.o. 3 mg/kg)?
Answer: Its AUC(0-inf) is 16200 ng·h/mL.

Question: And the half-life ([4]; po, brain, p.o. 3 mg/kg, read-out: T1/2 (converted))?
Answer: Its half-life is 164 min.

Question: What about the AUC(0-t) ([4]; po, plasma, p.o. 3 mg/kg) of the same compound?
Answer: Its AUC(0-t) is 625 ng·h/mL.

Question: What about the Cmax ([4]; po, plasma, p.o. 3 mg/kg) of the same compound?
Answer: Its Cmax is 175 ng/mL.

Question: And the MRT last ([4]; po, plasma, p.o. 3 mg/kg)?
Answer: The MRT last was 3.01 h.

Question: And the Tmax ([4]; po, plasma, p.o. 3 mg/kg)?
Answer: The Tmax was 1 h.

Question: What about the AUC(0-inf) ([4]; po, plasma, p.o. 3 mg/kg) of the same compound?
Answer: Its AUC(0-inf) is 784 ng·h/mL.

Question: And the half-life ([4]; po, plasma, p.o. 3 mg/kg, read-out: T1/2 (converted))?
Answer: Its half-life is 198 min.

Question: What about the AUC(0-t) ([4]; sc, brain, s.c. 3 mg/kg) of the same compound?
Answer: The AUC(0-t) was 22500 ng·h/mL.

Question: What about the Cmax ([4]; sc, brain, s.c. 3 mg/kg) of the same compound?
Answer: The Cmax was 3160 ng/mL.

Question: What about the MRT last ([4]; sc, brain, s.c. 3 mg/kg) of the same compound?
Answer: Its MRT last is 4.89 h.

Question: And the Tmax ([4]; sc, brain, s.c. 3 mg/kg)?
Answer: Its Tmax is 2 h.

Question: What about the AUC(0-inf) ([4]; sc, brain, s.c. 3 mg/kg) of the same compound?
Answer: The AUC(0-inf) was 22500 ng·h/mL.

Question: What about the half-life ([4]; sc, brain, s.c. 3 mg/kg, read-out: T1/2 (converted)) of the same compound?
Answer: Its half-life is 189 min.

Question: And the AUC(0-t) ([4]; sc, plasma, s.c. 3 mg/kg)?
Answer: The AUC(0-t) was 731 ng·h/mL.

Question: And the Cmax ([4]; sc, plasma, s.c. 3 mg/kg)?
Answer: The Cmax was 188 ng/mL.

Question: What about the MRT last ([4]; sc, plasma, s.c. 3 mg/kg) of the same compound?
Answer: The MRT last was 2.96 h.

Question: And the Tmax ([4]; sc, plasma, s.c. 3 mg/kg)?
Answer: The Tmax was 0.08 h.

Question: What about the AUC(0-inf) ([4]; sc, plasma, s.c. 3 mg/kg) of the same compound?
Answer: Its AUC(0-inf) is 1000 ng·h/mL.

Question: What about the half-life ([4]; sc, plasma, s.c. 3 mg/kg, read-out: T1/2 (converted)) of the same compound?
Answer: Its half-life is 235 min.

Question: And the “% Frelative po (AUCINF)” value ([4]; plasma, oral relative to subcutaneous)?
Answer: Its value is 78.3%.

Question: What about the T1/2 ([4]; plasma, s.c. 3 mg/kg) of the same compound?
Answer: The T1/2 was 3.92 h.
